For one compound, EC50 and IC50 results are on record in patent publication US10815235B2, “Polycyclic compounds and uses thereof” (priority 2017, dated 2020).

Each structure is given as a SMILES string. Where two headings read alike, the source gives them in different places.

Experiment [1] concerns the target Serotonin 5-HT1D receptor (Homo sapiens, UniProt P28221). Briefly: GTPγS Scintillation Proximity Assay, agonist and antagonist mode. It counts as biochemical. Here is the method:
Antagonist and agonist activities were determined using a GTPγS Scintillation Proximity Assay. The assay was prepared as follows: Membrane extracts were prepared from recombinant human Dopamine D2L, D3; Serotonin 5-HT1A, 5-HT1B, 5-HT1D and 5-HT1F receptors.
Samples were tested by proprietary biological assays by Ogeda S. A., Euroscreen FAST Business Unit, Rue Adrienne Bolland, 47 B-6041 Gosselies, Belgium. Each protein assay was prepared using the following conditions.
5-HT1D • Assay buffer: 20 mM HEPES pH 7.4; 200 mM NaCl, 10 μg/ml saponin, 3 mM MgCl2; • Membranes: recombinant 5-HT1D membrane extracts thawed on ice and diluted in assay buffer to give […] and kept on ice; • GDP: diluted in assay buffer to give a 30 μM working solution (3 μM final concentration); • Beads: PVT-WGA (Perkin Elmer, RPNQ001), diluted in assay buffer at 50 mg/ml (0.5 mg/10 μl); and • GTPγ^35S: (PerkinElmer NEG030X), diluted in assay buffer to give 0.1 nM.
Membranes were mixed with GDP (volume:volume 1:1) and incubated for at least 15 min on ice. In parallel, GTPγ[^35S] is mixed with the beads (volume:volume 1:1) just before starting the reaction.
To determine agonist activity, the following reagents were added in the wells of an Optiplate (Perkin Elmer): 50 μL of test or reference ligand, 10 μL of assay buffer, 20 μl of the membranes:GDP mix, and 20 μL of the GTPγ[^35S]:beads mix. EC50 values were used to determine whether a compound acted as an agonist.
To determine antagonist activity, the following reagents were added in the wells of an Optiplate (Perkin Elmer): 50 μL of test or reference ligand, 20 μL of the membranes:GDP mix, then the plate is incubated 15 minutes at room temperature. After incubation, 10 μL of reference agonist at historical EC80 (final concentration) was added, followed by 20 μL of the GTPγ[^35S]:beads mix.
The plates were covered with a top seal, mixed on an orbital shaker for 2 min, and then incubated for 1 hour at room temperature. Then the plates were centrifuged for 10 min at 2000 rpm, incubated at room temperature 1 hour and counted for 1 min/well with a PerkinElmer TopCount reader. IC50 values were used to determine whether a compound acted as an antagonist.

The target of experiment [2] is T1, Serotonin 5-HT2B receptor (Homo sapiens, UniProt P41595).
T1 construct: expressed in transfected cells; host or cells: CHO-K1
Description: IPOne HTRF assay, agonist and antagonist mode. It is filed as cell-based. How it is done: Antagonist and agonist activities were determined using an IPOne […] HTRF assay. The assay was prepared as follows: CHO-K1 cells expressing human recombinant Adrenergic α1A, Serotonin 5-HT2A, and 5-HT2B receptors grown to mid-log phase in culture media without antibiotics were detached with PBS-EDTA, centrifuged and resuspended in medium without antibiotics buffer. 20,000 cells were distributed in a 96 well plate and incubated overnight at 37° C. with 5% CO2.
To analyze agonist activity, the medium was removed and 20 μl of assay buffer plus 20 μl of test compound or reference agonist were added in each well. The plate was incubated for 60 min. at 37° C. with 5% CO2. EC50 values were used to determine whether a compound acted as an agonist.
To analyze antagonist activity, 20 μl of test compound or reference antagonist was added and the plate is incubated for 15 min. at 37° C. in a humidified atmosphere of 95% air with 5% CO2, then 20 μl of reference agonist at a final concentration corresponding to the historical EC80 is added. The plate is incubated for 60 min. at 37° C. with 5% CO2. IP1-D2 reagent and anti-IP1 cryptate reagents are then dispensed in the wells and IP1 concentrations are then measured following the manufacturer recommendations. IC50 values were used to determine whether a compound acted as an antagonist.
On the technique in general: TR-FRET usually uses a lanthanide donor and a delayed reading to cut background.

T1 sequence (P41595 whole entry): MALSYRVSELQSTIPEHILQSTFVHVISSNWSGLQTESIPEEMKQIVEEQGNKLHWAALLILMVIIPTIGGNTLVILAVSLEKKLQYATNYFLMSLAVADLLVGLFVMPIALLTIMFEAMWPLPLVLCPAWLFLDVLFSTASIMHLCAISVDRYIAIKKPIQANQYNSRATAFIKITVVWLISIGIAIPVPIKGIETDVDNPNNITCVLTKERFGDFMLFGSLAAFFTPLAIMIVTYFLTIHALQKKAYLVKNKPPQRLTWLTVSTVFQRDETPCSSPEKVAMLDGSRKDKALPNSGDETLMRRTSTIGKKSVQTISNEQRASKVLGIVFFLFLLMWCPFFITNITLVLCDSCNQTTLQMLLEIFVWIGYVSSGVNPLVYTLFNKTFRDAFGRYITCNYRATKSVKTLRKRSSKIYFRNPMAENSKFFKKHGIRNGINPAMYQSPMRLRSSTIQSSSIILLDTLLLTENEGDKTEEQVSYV
Sequence of Serotonin 5-HT1D receptor (P28221 whole entry): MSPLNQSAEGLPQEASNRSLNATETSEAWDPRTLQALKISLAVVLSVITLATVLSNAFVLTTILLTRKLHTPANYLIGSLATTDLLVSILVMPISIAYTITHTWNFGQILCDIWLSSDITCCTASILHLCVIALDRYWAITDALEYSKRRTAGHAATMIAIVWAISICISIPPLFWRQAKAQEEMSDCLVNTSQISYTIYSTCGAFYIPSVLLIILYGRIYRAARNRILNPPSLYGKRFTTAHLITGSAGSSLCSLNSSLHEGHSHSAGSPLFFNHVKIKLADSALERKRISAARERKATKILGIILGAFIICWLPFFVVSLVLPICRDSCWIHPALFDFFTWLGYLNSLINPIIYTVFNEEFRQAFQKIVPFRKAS

By EC50 is commonly meant the concentration at which the effect is half-maximal. Read a low EC50 as an effect from little substance. What is called IC50 is the midpoint of a concentration-inhibition curve. Turning to `CC[C@@H](CO)NC(=O)[C@@H]1C=C2c3cccc4c3c(c(C3CC3)n4C)C[C@H]2N(C)C1` [Compound D13, (6aR,9R)-5-cyclopropyl-N—((S)-1-hydroxybutan-2-yl)-4,7-dimethyl-4,6,6a,7,8,9-hexahydroindolo[4,3-fg]quinoline-9-carboxamide], the EC50 in experiment [1] (Agonist Activity (EC50), 5-HT1D, membrane extracts) is 730 nM; in experiment [1] (EC50 value for the Serotonin 5-HT1D receptor, agonist mode, bound stated), below 1000 nM. In addition, the IC50 in experiment [2] (CHO-K1 cells, vs reference agonist at EC80, read-out: Antagonist Activity (IC50), 5-HT2B) was 140 nM; in experiment [2] (antagonist mode, bound stated, read-out: IC50 value for the Serotonin 5-HT2B receptor), below 1000 nM.
